Measurements as given in the kinase profiling compilation of Christmann-Franck et al. (2016).

Columns and labels:
Experiment in all cases: KINOMEscan competition binding
Conditions in all cases: compound 10.0 µM
[1] = molecular target: CSNK1G2 (human) (UniProt P78368)
[2] = molecular target: DCLK2 (human) (UniProt Q8N568)
[3] = molecular target: STK38L (human) (UniProt Q9Y2H1)
[4] = molecular target: RPS6KA4 KD2 (human) (UniProt O75676)
[5] = molecular target: BMPR2 (human) (UniProt Q13873)
[6] = molecular target: CSNK2A1 (human) (UniProt P68400)
Chain of CSNK2A1 (human) (P68400 whole entry, looked up): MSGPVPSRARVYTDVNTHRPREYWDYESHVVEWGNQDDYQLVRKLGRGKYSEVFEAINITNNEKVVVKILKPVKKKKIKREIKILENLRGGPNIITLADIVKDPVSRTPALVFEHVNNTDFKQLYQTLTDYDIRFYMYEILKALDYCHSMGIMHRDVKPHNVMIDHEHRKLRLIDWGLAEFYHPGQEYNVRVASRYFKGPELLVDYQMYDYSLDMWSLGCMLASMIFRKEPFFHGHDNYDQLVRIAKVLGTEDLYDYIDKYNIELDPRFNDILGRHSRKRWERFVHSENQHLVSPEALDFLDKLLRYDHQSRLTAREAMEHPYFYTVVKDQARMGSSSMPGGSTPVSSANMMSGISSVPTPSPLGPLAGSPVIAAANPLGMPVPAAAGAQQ

[7] = molecular target: RIOK3 (human) (UniProt O14730)
[8] = molecular target: PTK2 (human) (UniProt Q05397)
[9] = molecular target: ABL2 (human) (UniProt P42684)
Chain of ABL2 (human) (P42684 whole entry, looked up): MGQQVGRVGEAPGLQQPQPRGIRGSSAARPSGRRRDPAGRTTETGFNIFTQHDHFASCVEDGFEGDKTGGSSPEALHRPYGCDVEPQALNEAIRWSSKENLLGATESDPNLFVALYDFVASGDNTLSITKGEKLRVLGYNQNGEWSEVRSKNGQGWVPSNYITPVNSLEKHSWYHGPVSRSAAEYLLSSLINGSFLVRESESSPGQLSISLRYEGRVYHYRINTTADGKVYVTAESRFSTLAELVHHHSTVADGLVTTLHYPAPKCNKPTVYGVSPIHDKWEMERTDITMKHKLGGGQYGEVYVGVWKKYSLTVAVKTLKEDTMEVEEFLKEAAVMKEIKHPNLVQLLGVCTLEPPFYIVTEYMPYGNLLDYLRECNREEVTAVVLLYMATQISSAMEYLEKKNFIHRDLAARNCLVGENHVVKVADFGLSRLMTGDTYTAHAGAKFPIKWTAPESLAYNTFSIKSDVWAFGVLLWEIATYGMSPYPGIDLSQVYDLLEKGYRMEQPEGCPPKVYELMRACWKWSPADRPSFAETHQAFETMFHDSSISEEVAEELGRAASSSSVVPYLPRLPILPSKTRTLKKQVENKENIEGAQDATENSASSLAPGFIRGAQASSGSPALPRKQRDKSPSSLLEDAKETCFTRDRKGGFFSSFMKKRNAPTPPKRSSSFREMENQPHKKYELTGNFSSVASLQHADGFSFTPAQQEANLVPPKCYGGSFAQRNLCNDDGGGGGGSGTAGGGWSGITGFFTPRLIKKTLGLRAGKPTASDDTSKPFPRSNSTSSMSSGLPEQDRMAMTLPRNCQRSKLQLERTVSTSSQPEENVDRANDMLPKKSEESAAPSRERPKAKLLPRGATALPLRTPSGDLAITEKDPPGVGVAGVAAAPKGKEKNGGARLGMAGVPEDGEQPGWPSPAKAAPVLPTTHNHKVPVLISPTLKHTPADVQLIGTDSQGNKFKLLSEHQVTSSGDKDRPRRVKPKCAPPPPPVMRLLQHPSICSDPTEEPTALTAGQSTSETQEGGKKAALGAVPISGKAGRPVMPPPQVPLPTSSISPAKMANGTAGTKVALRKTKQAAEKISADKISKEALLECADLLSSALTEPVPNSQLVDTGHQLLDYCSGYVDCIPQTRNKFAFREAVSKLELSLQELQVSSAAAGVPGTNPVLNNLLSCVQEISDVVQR

[10] = molecular target: MAP3K10 (human) (UniProt Q02779)
[11] = molecular target: AURKB (human) (UniProt Q96GD4)
[12] = molecular target: PRKAA1 (human) (UniProt Q13131)
[13] = molecular target: ZAP70 (human) (UniProt P43403)
[14] = molecular target: MINK1 (human) (UniProt Q8N4C8)
Chain of MINK1 (human) (Q8N4C8 whole entry, looked up): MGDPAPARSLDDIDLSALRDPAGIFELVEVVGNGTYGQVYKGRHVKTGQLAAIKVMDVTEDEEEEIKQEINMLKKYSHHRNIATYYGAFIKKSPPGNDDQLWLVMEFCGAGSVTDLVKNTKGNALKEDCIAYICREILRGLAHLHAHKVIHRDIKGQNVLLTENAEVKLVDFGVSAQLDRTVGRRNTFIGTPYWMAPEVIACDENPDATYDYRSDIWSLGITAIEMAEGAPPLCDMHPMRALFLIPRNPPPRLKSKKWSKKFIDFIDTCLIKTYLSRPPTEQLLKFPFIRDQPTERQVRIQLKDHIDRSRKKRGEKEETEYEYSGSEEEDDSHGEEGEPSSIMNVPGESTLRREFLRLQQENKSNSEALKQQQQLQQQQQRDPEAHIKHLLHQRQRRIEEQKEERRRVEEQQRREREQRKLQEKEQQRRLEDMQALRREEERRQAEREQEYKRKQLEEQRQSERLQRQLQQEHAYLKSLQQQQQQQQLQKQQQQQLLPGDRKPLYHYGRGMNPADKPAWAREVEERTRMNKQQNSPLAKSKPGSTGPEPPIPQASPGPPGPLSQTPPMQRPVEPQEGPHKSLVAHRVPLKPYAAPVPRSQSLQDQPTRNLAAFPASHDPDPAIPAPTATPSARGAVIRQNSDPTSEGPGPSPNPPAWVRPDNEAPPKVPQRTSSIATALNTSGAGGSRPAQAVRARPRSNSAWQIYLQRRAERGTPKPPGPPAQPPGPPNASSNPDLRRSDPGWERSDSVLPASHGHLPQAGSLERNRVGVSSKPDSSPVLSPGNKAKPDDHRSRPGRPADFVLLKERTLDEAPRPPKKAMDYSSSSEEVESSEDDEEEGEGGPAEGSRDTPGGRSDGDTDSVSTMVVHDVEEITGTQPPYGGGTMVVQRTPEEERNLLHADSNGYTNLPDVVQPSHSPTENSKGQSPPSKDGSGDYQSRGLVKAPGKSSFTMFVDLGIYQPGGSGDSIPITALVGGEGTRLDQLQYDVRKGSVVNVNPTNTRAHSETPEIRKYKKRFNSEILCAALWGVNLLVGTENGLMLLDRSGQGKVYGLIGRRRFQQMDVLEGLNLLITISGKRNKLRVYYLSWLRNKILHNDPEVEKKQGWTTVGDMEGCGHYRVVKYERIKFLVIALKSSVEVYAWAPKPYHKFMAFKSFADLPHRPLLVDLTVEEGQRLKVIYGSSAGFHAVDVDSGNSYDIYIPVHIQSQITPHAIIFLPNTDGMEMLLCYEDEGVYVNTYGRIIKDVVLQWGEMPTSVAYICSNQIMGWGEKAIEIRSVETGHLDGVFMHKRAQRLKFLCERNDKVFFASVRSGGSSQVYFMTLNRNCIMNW

[15] = molecular target: PIP4K2B (human) (UniProt P78356)
[16] = molecular target: MELK (human) (UniProt Q14680)
[17] = molecular target: PRKD3 (human) (UniProt O94806)
[18] = molecular target: ROS1 (human) (UniProt P08922)
[19] = molecular target: CSNK2A2 (human) (UniProt P19784)
Chain of CSNK2A2 (human) (P19784 whole entry, looked up): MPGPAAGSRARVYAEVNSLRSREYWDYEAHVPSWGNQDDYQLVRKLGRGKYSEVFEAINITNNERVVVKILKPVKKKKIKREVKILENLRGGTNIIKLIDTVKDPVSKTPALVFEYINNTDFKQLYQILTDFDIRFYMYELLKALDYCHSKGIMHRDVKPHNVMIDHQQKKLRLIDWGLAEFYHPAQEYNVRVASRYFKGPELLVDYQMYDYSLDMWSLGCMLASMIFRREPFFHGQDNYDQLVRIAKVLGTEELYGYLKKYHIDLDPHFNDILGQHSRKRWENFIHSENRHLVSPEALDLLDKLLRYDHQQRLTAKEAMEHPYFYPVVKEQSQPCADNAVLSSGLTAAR

[20] = molecular target: CDK3 (human) (UniProt Q00526)
[21] = molecular target: FER (human) (UniProt P16591)
[22] = molecular target: ULK3 (human) (UniProt Q6PHR2)
[23] = molecular target: PIP5K1A (human) (UniProt Q99755)
[24] = molecular target: WEE1 (human) (UniProt P30291)
Chain of WEE1 (human) (P30291 whole entry, looked up): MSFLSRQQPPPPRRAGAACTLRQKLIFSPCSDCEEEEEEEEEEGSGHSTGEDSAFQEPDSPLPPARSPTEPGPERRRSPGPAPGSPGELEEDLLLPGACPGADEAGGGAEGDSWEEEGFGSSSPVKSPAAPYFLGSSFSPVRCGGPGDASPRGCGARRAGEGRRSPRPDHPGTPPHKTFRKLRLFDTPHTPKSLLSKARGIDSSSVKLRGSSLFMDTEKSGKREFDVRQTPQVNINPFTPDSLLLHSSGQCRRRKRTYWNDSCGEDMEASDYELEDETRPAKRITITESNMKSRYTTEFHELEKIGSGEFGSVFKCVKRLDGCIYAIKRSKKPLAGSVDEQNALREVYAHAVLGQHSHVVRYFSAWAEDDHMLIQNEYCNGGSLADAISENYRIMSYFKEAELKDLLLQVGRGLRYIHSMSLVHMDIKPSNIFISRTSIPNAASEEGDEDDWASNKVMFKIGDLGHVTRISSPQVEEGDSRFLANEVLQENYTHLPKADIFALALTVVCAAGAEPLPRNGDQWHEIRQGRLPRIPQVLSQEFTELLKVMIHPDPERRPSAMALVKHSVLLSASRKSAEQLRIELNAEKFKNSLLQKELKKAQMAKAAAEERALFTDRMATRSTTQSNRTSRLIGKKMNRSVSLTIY

[25] = molecular target: TNK2 (human) (UniProt Q07912)
Chain of TNK2 (human) (Q07912 whole entry, looked up): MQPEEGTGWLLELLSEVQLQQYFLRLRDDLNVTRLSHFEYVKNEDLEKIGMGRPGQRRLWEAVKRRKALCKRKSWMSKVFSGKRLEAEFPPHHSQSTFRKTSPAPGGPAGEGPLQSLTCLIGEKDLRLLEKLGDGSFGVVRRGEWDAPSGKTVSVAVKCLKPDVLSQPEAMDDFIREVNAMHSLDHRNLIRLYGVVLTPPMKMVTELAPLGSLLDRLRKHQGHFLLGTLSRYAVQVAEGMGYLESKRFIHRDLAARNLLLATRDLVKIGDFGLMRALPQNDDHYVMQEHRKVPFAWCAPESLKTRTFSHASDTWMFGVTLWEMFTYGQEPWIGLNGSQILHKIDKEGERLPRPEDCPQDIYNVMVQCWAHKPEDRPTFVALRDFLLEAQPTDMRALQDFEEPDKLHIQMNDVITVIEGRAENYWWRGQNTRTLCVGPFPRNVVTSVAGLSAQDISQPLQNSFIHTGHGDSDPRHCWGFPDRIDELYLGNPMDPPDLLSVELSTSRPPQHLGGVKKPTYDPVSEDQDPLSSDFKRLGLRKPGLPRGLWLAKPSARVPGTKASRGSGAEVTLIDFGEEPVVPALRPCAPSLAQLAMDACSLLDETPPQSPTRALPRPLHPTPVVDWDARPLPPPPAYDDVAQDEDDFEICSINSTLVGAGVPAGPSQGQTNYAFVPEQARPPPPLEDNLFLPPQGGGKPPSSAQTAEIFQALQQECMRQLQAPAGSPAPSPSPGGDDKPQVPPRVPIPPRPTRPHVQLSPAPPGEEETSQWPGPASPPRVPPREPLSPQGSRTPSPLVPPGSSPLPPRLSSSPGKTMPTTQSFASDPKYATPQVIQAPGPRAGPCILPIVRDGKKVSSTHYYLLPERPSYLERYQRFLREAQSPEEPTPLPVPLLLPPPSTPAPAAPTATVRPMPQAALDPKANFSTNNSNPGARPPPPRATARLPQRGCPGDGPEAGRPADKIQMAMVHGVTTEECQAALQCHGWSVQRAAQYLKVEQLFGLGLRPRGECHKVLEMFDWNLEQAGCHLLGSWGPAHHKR

[26] = molecular target: TGFBR1 (human) (UniProt P36897)
[27] = molecular target: PAK6 (human) (UniProt Q9NQU5)
[28] = molecular target: MAP2K1 (human) (UniProt Q02750)
[29] = molecular target: STK24 (human) (UniProt Q9Y6E0)
[30] = molecular target: RPS6KA3 KD1 (human) (UniProt P51812)
[31] = molecular target: ERBB4 (human) (UniProt Q15303)
[32] = molecular target: ULK1 (human) (UniProt O75385)
[33] = molecular target: MAP3K5 (human) (UniProt Q99683)
[34] = molecular target: EPHA6 (human) (UniProt Q9UF33)
[35] = molecular target: STK36 (human) (UniProt Q9NRP7)
[36] = molecular target: FLT1 (human) (UniProt P17948)
[37] = molecular target: CSK (human) (UniProt P41240)
[38] = molecular target: CDK7 (human) (UniProt P50613)
[39] = molecular target: EPHB4 (human) (UniProt P54760)
[40] = molecular target: NUAK1 (human) (UniProt O60285)

Row | SMILES | kinase still bound, per cent of control [1] | kinase still bound, per cent of control [2] | kinase still bound, per cent of control [3] | kinase still bound, per cent of control [4] | kinase still bound, per cent of control [5] | kinase still bound, per cent of control [6] | kinase still bound, per cent of control [7] | kinase still bound, per cent of control [8] | kinase still bound, per cent of control [9] | kinase still bound, per cent of control [10] | kinase still bound, per cent of control [11] | kinase still bound, per cent of control [12] | kinase still bound, per cent of control [13] | kinase still bound, per cent of control [14] | kinase still bound, per cent of control [15] | kinase still bound, per cent of control [16] | kinase still bound, per cent of control [17] | kinase still bound, per cent of control [18] | kinase still bound, per cent of control [19] | kinase still bound, per cent of control [20] | also measured
1 | Nc1ccc(-c2ccc3ncc4ccc(=O)n(-c5cccc(C(F)(F)F)c5)c4c3c2)cn1 | 100% | 98% | 100% | 100% | 100% | 79% | 100% | 75% | 100% | 100% | 89% | 100% | 100% | 56% | 100% | 50% | 100% | 82% | 48% | 100% | kinase still bound, per cent of control [21]: 95%; kinase still bound, per cent of control [22]: 100%; kinase still bound, per cent of control [23]: 78%; kinase still bound, per cent of control [24]: 100%; kinase still bound, per cent of control [25]: 100%; kinase still bound, per cent of control [26]: 100%; kinase still bound, per cent of control [27]: 100%; kinase still bound, per cent of control [28]: 100%; kinase still bound, per cent of control [29]: 98%; kinase still bound, per cent of control [30]: 80%; kinase still bound, per cent of control [31]: 100%; kinase still bound, per cent of control [32]: 96%; kinase still bound, per cent of control [33]: 100%; kinase still bound, per cent of control [34]: 100%; kinase still bound, per cent of control [35]: 99%; kinase still bound, per cent of control [36]: 100%; kinase still bound, per cent of control [37]: 100%; kinase still bound, per cent of control [38]: 51%; kinase still bound, per cent of control [39]: 100%; kinase still bound, per cent of control [40]: 83%
2 | COc1cc(C(=O)NC2CCN(C)CC2)ccc1Nc1ncc2c(n1)N(C1CCCC1)C(C)CC(=O)N2C (stereo not given) | 100% | 19% | 100% | 100% | 100% | 100% | 100% | 0.4% | 100% | 100% | 100% | 100% | 100% | 100% | 100% | 100% | 32% | 100% | 100% | 100% | kinase still bound, per cent of control [21]: 31%; kinase still bound, per cent of control [22]: 100%; kinase still bound, per cent of control [23]: 100%; kinase still bound, per cent of control [24]: 100%; kinase still bound, per cent of control [25]: 100%; kinase still bound, per cent of control [26]: 100%; kinase still bound, per cent of control [27]: 100%; kinase still bound, per cent of control [28]: 100%; kinase still bound, per cent of control [29]: 100%; kinase still bound, per cent of control [30]: 100%; kinase still bound, per cent of control [31]: 100%; kinase still bound, per cent of control [32]: 100%; kinase still bound, per cent of control [33]: 100%; kinase still bound, per cent of control [34]: 100%; kinase still bound, per cent of control [35]: 100%; kinase still bound, per cent of control [36]: 100%; kinase still bound, per cent of control [37]: 100%; kinase still bound, per cent of control [38]: 100%; kinase still bound, per cent of control [39]: 100%; kinase still bound, per cent of control [40]: 100%
3 | Cc1cc([C@@H](C)Nc2ccccc2C(=O)O)c2nc(N3CCOCC3)cc(=O)n2c1 | 88% | 100% | 94% | 100% | 85% | 100% | 100% | 88% | 95% | 96% | 96% | 100% | 100% | 100% | 100% | 100% | 100% | 100% | 100% | 100% | kinase still bound, per cent of control [21]: 100%; kinase still bound, per cent of control [22]: 98%; kinase still bound, per cent of control [23]: 100%; kinase still bound, per cent of control [24]: 100%; kinase still bound, per cent of control [25]: 100%; kinase still bound, per cent of control [26]: 100%; kinase still bound, per cent of control [27]: 93%; kinase still bound, per cent of control [28]: 89%; kinase still bound, per cent of control [29]: 100%; kinase still bound, per cent of control [30]: 91%; kinase still bound, per cent of control [31]: 100%; kinase still bound, per cent of control [32]: 91%; kinase still bound, per cent of control [33]: 100%; kinase still bound, per cent of control [34]: 100%; kinase still bound, per cent of control [35]: 100%; kinase still bound, per cent of control [36]: 83%; kinase still bound, per cent of control [37]: 100%; kinase still bound, per cent of control [38]: 97%; kinase still bound, per cent of control [39]: 96%; kinase still bound, per cent of control [40]: 100%
